Data taken from patent publication US20260328779A1, “METHODS AND COMPOSITIONS FOR THE DIAGNOSIS AND TREATMENT OF IGA NEPHROPATHY” (Beth Israel Deaconess Medical Center, Inc., priority 2022, published 2026).
“Also recorded” adds a separate entry of the source.

Test system: primary human renal mesangial cells
Test: Inhibition of anti-Tn CICs-stimulated mesangial cell proliferation (Ki-67)
Assay type: cell-based
Conditions: 30 min at RT
Procedure: […] of serum was mixed with […] of Tn(+)matrix beads or mock beads overnight at 4° C. (10 rpm). Supernatant was collected after pelleting the beads at 500×g for 30 sec at 4° C. After two rounds of such sequential anti-Tn CICs immunodepletion (serum-ID) and its control (serum-Mock), collected serum was filtered by syringe filter unit (Cat #SLHP033RS, Millipore Sigma) before use. Cells were cultured at ~90% confluency in 96-well plate, and starved in Mesangial cell media (Cat #4201) with 0.5% FBS (Cat #0010) and 0.05× mesangial cell growth supplement (MsCGS, Cat #4252) from ScienCell for 24 h at 37° C. prior to stimulation. Cells were stimulated with 5% serum-Mock, 5% serum-ID with or without exogenous anti-Tn CICs (50 ng/[…]/well, total) for 24 h at 37° C. incubator. Cells were fixed with 4% PFA with 0.05% Triton-X-100 in PBS for 20 min at 4° C. Fixed cells were blocked with 5% (vol/vol) goat serum in PBS for 1 h at 4° C., and incubated with anti-Ki-67 antibody (SP6, rabbit IgG, Cat #CRM325B, Biocare Medical, diluted to 1:50) in PBS for 1 h at 4° C. Cells were washed 3× with chilled PBS, and incubated with Alexa Fluor #488-goat anti-rabbit IgG (Cat #A27034, Thermo Fisher Scientific) at 1:400 in PBS for 1 h at 4° C. in the dark. Cells were washed 3× with chilled PBS, and stained with DAPI (diluted to 0.1 mM) in PBS for 10 min at RT, and analyzed using a microscope (AMG EVOS FL digital inverted microscope, Fisher Scientific, ×400 magnification). For inhibition assay, anti-Tn CICs was preincubated with 100 mM α-methylGalNAc, or α-methylGlcNAc in PBS for 30 min at RT. Serum from three healthy controls (C3, C6, and pooled C1-C10; Cmix) and three IgAN (P5, P10, and pooled P1-P10; Pmix) were used in this assay. […] of serum with IgAN (P1-P20) or healthy control (C1-C20) was analyzed on SDS-PAGE gel, and stained with Coomassie.

## CO[C@H]1O[C@H](CO)[C@H](O)[C@H](O)[C@H]1NC(C)=O [α-methylGalNAc]
anti-Tn CICs purified from IgAN patients pretreated with 100 mM compound
  inhibition of proliferative activity of anti-Tn CICs from IgAN patients toward mesangial cells: inhibits their proliferative activity toward mesangial cells; also recorded: failed to stimulate human renal mesangial cells
anti-Tn CICs purified from healthy control pretreated with 100 mM compound
  inhibition of proliferative activity of anti-Tn CICs from healthy control sera toward mesangial cells: did not significantly inhibit mesangial cell proliferation
